Experimental data: patent US10226045B2, “Azoline compounds” (priority 2014, dated 2019)
Where two headings read alike, the source gives them in different places.

What was measured:
Assay type in all cases: in vivo
[1] = system: Tobacco Budworm (Heliothis virescens); experiment: Tobacco budworm, insect diet microtiter plate test; details: 120 h
Procedure: B.4 Tobacco Budworm (Heliothis virescens)
For evaluating control of tobacco budworm (HeliothiS virescens) the test unit consisted of 96-well-microtiter plates containing an insect diet and 15-25 H. virescens eggs.
(§1) The compounds were formulated using a solution containing 75% v/v water and 25% v/v DMSO. Different concentrations of formulated compounds were sprayed onto the insect diet at 10 μl, using a custom built micro atomizer, at two replications.
(§2) After application, microtiter plates were incubated at about 28±1° C. and about 80±5% relative humidity for 5 days. Egg and larval mortality was then visually assessed.

[2] = system: Mediterranean Fruitfly (Ceratitis capitata); experiment: Mediterranean fruitfly, insect diet microtiter plate test; details: 120 h
Procedure: B.6 Mediterranean Fruitfly (Ceratitis capitata)
as §1, with “For evaluating control of Mediterranean fruitfly (CeratitiS capitata) the test unit consisted of microtiter plates containing an insect diet and 50-80 C. capitata eggs. The” for “The”, “5” for “10”
as §2

[3] = system: Boll Weevil (Anthonomus grandis); experiment: Boll weevil, insect diet microtiter plate test; details: 120 h
Procedure: B.5 Boll Weevil (Anthonomus grandis)
For evaluating control of boll weevil (Anthonomus grandis) the test unit consisted of 96-well-microtiter plates containing an insect diet and 5-10 A. grandis eggs.
The compounds were formulated using a solution containing 75% v/v water and 25% v/v DMSO. Different concentrations of formulated compounds were sprayed onto the insect diet at 5 μl, using a custom built micro atomizer, at two replications.
After application, microtiter plates were incubated at about 25±1° C. and about 75±5% relative humidity for 5 days. Egg and larval mortality was then visually assessed.

[4] = system: Orchid Thrips (dichromothrips corbetti); experiment: Orchid thrips, floral-immersion technique
Procedure: B.7 Orchid Thrips (dichromothrips corbetti)
Dichromothrips corbetti adults used for bioassay were obtained from a colony maintained continuously under laboratory conditions. For testing purposes, the test compound is diluted in a 1:1 mixture of acetone:water (vol:vol), plus Kinetic HV at a rate of 0.01% v/v.
Thrips potency of each compound was evaluated by using a floral-immersion technique. All petals of individual, intact orchid flowers were dipped into treatment solution and allowed to dry in Petri dishes. Treated petals were placed into individual re-sealable plastic along with about 20 adult thrips. All test arenas were held under continuous light and a temperature of about 28° C. for duration of the assay. After 3 days, the numbers of live thrips were counted on each petal. The percent mortality was recorded 72 hours after treatment.

[5] = system: Vetch Aphid (Megoura viciae); experiment: Vetch aphid, broad bean leaf disk test; details: foliar, 120 h
Procedure: B.3 Vetch Aphid (Megoura viciae)
For evaluating control of vetch aphid (Megoura viciae) through contact or systemic means the test unit consisted of 24-well-microtiter plates containing broad bean leaf disks.
The compounds were formulated using a solution containing 75% v/v water and 25% v/v DMSO. Different concentrations of formulated compounds were sprayed onto the leaf disks at 2.5 μl, using a custom built micro atomizer, at two replications.
After application, the leaf disks were air-dried and 5-8 adult aphids placed on the leaf disks inside the microtiter plate wells. The aphids were then allowed to suck on the treated leaf disks and incubated at about 23±1° C. and about 50±5% relative humidity for 5 days. Aphid mortality and fecundity was then visually assessed.

[6] = system: Diamond Back Moth (Plutella xylostella); experiment: Diamond back moth, cabbage leaf dip test; details: foliar
Procedure: B.1 Diamond Back Moth (Plutella xylostella)
The active compound was dissolved at the desired concentration in a mixture of 1:1 (vol:vol) distilled water:aceteone. Surfactant (Kinetic HV) was added at a rate of 0.01% (vol/vol). The test solution was prepared at the day of use.
Leaves of cabbage were dipped in test solution and air-dried. Treated leaves were placed in petri dishes lined with moist filter paper and inoculated with ten 3rd instar larvae. Mortality was recorded 72 hours after treatment.

[7] = system: Rice Green Leafhopper (Nephotettix virescens); experiment: Rice green leafhopper, sprayed rice seedlings; details: 72 h
Procedure: B.8 Rice Green Leafhopper (Nephotettix virescens)
Rice seedlings were cleaned and washed 24 hours before spraying. The active compounds were formulated in 1:1 acetone:water (vol:vol), and 0.01% vol/vol surfactant (Kinetic HV) was added. Potted rice seedlings were sprayed with 5-6 ml test solution, air dried, covered with Mylar cages cages and inoculated with 10 adults. Treated rice plants were kept at about 28-29° C. and relative humidity of about 50-60%. Percent mortality was recorded after 72 hours.

[8] = system: Neotropical Brown Stink Bug (Euschistus heros); experiment: Neotropical brown stink bug, sprayed soybean pods in cups; details: 120 h
Procedure: B.12 Neotropical Brown Stink Bug (Euschistus heros)
(§3) The active compound was dissolved at the desired concentration in a mixture of 1:1 (vol:vol) distilled water: acetone. Surfactant (Kinetic HV) was added at a rate of 0.01% (vol/vol). The test solution was prepared at the day of use.
Soybean pods were placed in microwavable plastic cups and inoculated with ten adult stage E. heros. Using a hand atomizer, approximately 1 ml solution is sprayed into each cup, insects and food present. A water source was provided (cotton wick with water). Each treatment was replicated 2-fold. Assay arenas were kept at about 25° C. Percent mortality was recorded after 5 days.

[9] = system: Green Peach Aphid (Myzus persicae); experiment: Green peach aphid, systemic test on artificial diet in microtiter plates; details: 72 h
Text: B.2 Green Peach Aphid (Myzus persicae)
For evaluating control of green peach aphid (Myzus persicae) through systemic means the test unit consisted of 96-well-microtiter plates containing liquid artificial diet under an artificial mem brane.
The compounds were formulated using a solution containing 75% v/v water and 25% v/v DMSO. Different concentrations of formulated compounds were pipetted into the aphid diet, using a custom built pipetter, at two replications.
After application, 5-8 adult aphids were placed on the artificial membrane inside the microtiter plate wells. The aphids were then allowed to suck on the treated aphid diet and incubated at about 23±1° C. and about 50±5% relative humidity for 3 days. Aphid mortality and fecundity was then visually assessed.

[10] = system: Green Soldier Stink Bug (Nezara viridula); experiment: Green soldier stink bug, sprayed soybean pods in Petri dishes; details: 120 h
Procedure: B.11 Green Soldier Stink Bug (Nezara viridula)
The active compound was dissolved at the desired concentration in a mixture of 1:1 (vol:vol) distilled water:acetone. Surfactant (Kinetic HV) was added at a rate of 0.01% (vol/vol). The test solution was prepared at the day of use.
Soybean pods were placed in glass Petri dishes lined with moist filter paper and inoculated with ten late 3rd instar N. viridula. Using a hand atomizer, approximately 2 ml solution is sprayed into each Petri dish. Assay arenas were kept at about 25° C. Percent mortality was recorded after 5 days.

[11] = system: Brown Marmorated Stink Bug (Halyomorpha halys); experiment: Brown marmorated stink bug, sprayed peanuts and soybean seeds in cups; details: 120 h
Procedure: B.13 Brown Marmorated Stink Bug (Halyomorpha halys)
as §3
Row peanuts and soybean seeds were placed into microwavable plastic cups and inoculated with five adult stage H. halys. Using a hand atomizer, approximately 1 ml solution is sprayed into each cup, insects and food present. A water source was provided (cotton wick with water). Each treatment is replicated 4-fold. Assay arenas are kept at about 25° C. Percent mortality was recorded after 5 days.

[12] = system: Red Spider Mite (Tetranychus kanzawai); experiment: Red spider mite, sprayed cowpea beans; details: 72 h
Procedure: B.9 Red Spider Mite (Tetranychus kanzawai)
The active compound was dissolved at the desired concentration in a mixture of 1:1 (vol:vol) distilled water:acetone. Add surfactant (Kinetic HV) was added at a rate of 0.01% (vol/vol). The test solution was prepared at the day of use.
Potted cowpea beans of 4-5 days of age were cleaned with tap water and sprayed with 1-2 ml of the test solution using air driven hand atomizer. The treated plants were allowed to air dry and afterwards inoculated with 30 or more mites by clipping a cassava leaf section from rearing population. Treated plants were placed inside a holding room at about 25-27° C. and about 50-60% relative humidity. Percent mortality was assessed 72 hours after treatment.

[13] = system: Southern Armyworm (Spodoptera eridania); experiment: Southern armyworm, sprayed lima bean plants; details: 96 h
Procedure: B.10 Southern Armyworm (Spodoptera eridania)
The active compounds were formulated in cyclohexanone as a 10,000 ppm solution supplied in tubes. The tubes were inserted into an automated electrostatic sprayer equipped with an atomizing nozzle and they served as stock solutions for which lower dilutions were made in 50% acetone:50% water (v/v). A nonionic surfactant (Kinetic®) was included in the solution at a volume of 0.01% (v/v).
Lima bean plants (variety Sieva) were grown 2 plants to a pot and selected for treatment at the 1st true leaf stage. Test solutions were sprayed onto the foliage by an automated electrostatic plant sprayer equipped with an atomizing spray nozzle. The plants were dried in the sprayer fume hood and then removed from the sprayer. Each pot was placed into perforated plastic bags with a zip closure. About 10 to 11 armyworm larvae were placed into the bag and the bags zipped closed. Test plants were maintained in a growth room at about 25° C. and about 20-40% relative humidity for 4 days, avoiding direct exposure to fluorescent light (24 hour photoperiod) to prevent trapping of heat inside the bags. Mortality and reduced feeding were assessed 4 days after treatment, compared to untreated control plants.

[14] = 2500 ppm, eggs on sprayed insect diet, egg and larval mortality after 5 days, in comparison with untreated controls, read-out: mortality
[15] = 2500 ppm, adult aphids on treated artificial diet, 3 days, in comparison with untreated controls, read-out: mortality

COC(=O)c1ccc(C2=NOC(c3cc(Cl)c(F)c(Cl)c3)(C(F)(F)F)C2)c2c1CCC2 (centres unmarked) [Compound 1-1, Methyl 7-[5-(3,5-dichloro-4-fluoro-phenyl)-5-(trifluoromethyl)-4H-isoxazol-3-yl]indane-4-carboxylate]
≥ 75%: mortality at 2500 ppm [1] | mortality at 2500 ppm [2] | mortality at 2500 ppm [3] | mortality at 300 ppm ([4]; Thrips, 72 h) | mortality at 2500 ppm [5] | mortality at 300 ppm ([6]; 72 h)

O=C(O)c1ccc(C2=NOC(c3cc(Cl)c(F)c(Cl)c3)(C(F)(F)F)C2)c2c1CCC2 (centres unmarked) [Compound 1-2, 7-[5-(3,5-Dichloro-4-fluoro-phenyl)-5-(trifluoromethyl)-4H-isoxazol-3-yl]indane-4-carboxylic acid]
≥ 75%: mortality at 2500 ppm [1] | mortality at 2500 ppm [3] | mortality at 300 ppm ([6]; 72 h)

O=C(NCC1CC1)c1ccc(C2=NOC(c3cc(Cl)c(F)c(Cl)c3)(C(F)(F)F)C2)c2c1CCC2 (centres unmarked) [Compound 1-3, N-(Cyclopropylmethyl)-7-[5-(3,5-dichloro-4-fluoro-phenyl)-5-(trifluoromethyl)-4H-isoxazol-3-yl]indane-4-carboxamide]
≥ 75%: mortality at 2500 ppm [1] | mortality at 300 ppm [7] | mortality at 2500 ppm [2] | mortality at 100 ppm [8] | mortality at 2500 ppm [3] | mortality at 2500 ppm [9] | mortality at 300 ppm [10] | mortality at 300 ppm ([4]; Thrips, 72 h) | mortality at 100 ppm [11] | mortality at 2500 ppm [5] | mortality at 300 ppm ([6]; 72 h) | mortality at 300 ppm [12]

O=C(NCc1ccccn1)c1ccc(C2=NOC(c3cc(Cl)cc(Cl)c3)(C(F)(F)F)C2)c2c1CCC2 (centres unmarked) [Compound 1-27, 7-[5-(3,5-dichlorophenyl)-5-(trifluoromethyl)-4H-isoxazol-3-yl]-N-(2-pyridylmethyl)indane-4-carboxamide]
≥ 75%: mortality at 2500 ppm [1] | mortality at 300 ppm [7] | mortality at 2500 ppm [2] | mortality at 100 ppm [8] | mortality at 2500 ppm [3] | mortality at 1 ppm [13] | mortality at 2500 ppm [9] | mortality at 300 ppm [10] | mortality at 300 ppm ([4]; Thrips, 72 h) | mortality at 100 ppm [11] | mortality at 2500 ppm [5] | mortality at 300 ppm ([6]; 72 h) | mortality at 300 ppm [12]

O=C(O)c1ccc(C2=NCC(c3cc(Cl)c(F)c(Cl)c3)(C(F)(F)F)C2)c2c1CCC2 (centres unmarked) [Compound 2-1, 7-[3-(3,5-Dichloro-4-fluoro-phenyl)-3-(trifluoromethyl)-2,4-dihydropyrrol-5-yl]indane-4-carboxylic acid]
≥ 75%: mortality at 2500 ppm [1, 14] | mortality at 2500 ppm [3, 14] | mortality at 2500 ppm [9, 15] | mortality at 300 ppm ([6]; 300 ppm, 3rd instar larvae on dipped cabbage leaves, 72 hours after treatment, in comparison with untreated controls, read-out: mortality)

COC(=O)c1ccc(C2=NCC(c3cc(Cl)c(F)c(Cl)c3)(C(F)(F)F)C2)c2c1CCC2 (centres unmarked) [Compound 2-2, Methyl 7-[3-(3,5-dichloro-4-fluoro-phenyl)-3-(trifluoromethyl)-2,4-dihydropyrrol-5-yl]indane-4-carboxylate]
≥ 75%: mortality at 2500 ppm [1, 14] | mortality at 2500 ppm [3, 14] | mortality at 2500 ppm [9, 15] | mortality at 300 ppm ([4]; 300 ppm, adult thrips on dipped orchid petals, 72 hours after treatment, in comparison with untreated controls, read-out: mortality) | mortality at 2500 ppm ([5]; 2500 ppm, adult aphids on sprayed broad bean leaf disks, 5 days, in comparison with untreated controls, read-out: mortality)

O=C(O)c1ccc(C2=NOC(c3cc(Cl)cc(Cl)c3)(C(F)(F)F)C2)c2c1CCCC2 (centres unmarked) [Compound 3-2, 8-[5-(3,5-dichlorophenyl)-5-(trifluoromethyl)-4H-isoxazol-3-yl]tetralin-5-carboxylic acid]
≥ 75%: mortality at 2500 ppm [3]

O=C(NCC(F)(F)F)c1ccc(C2=NOC(c3cc(Cl)cc(Cl)c3)(C(F)(F)F)C2)c2c1CCCC2 (centres unmarked) [Compound 3-5, 8-[5-(3,5-dichlorophenyl)-5-(trifluoromethyl)-4H-isoxazol-3-yl]-N-(2,2,2-trifluoroethyl)tetralin-5-carboxamide]
≥ 75%: mortality at 2500 ppm [1] | mortality at 300 ppm [7] | mortality at 2500 ppm [2] | mortality at 2500 ppm [3] | mortality at 2500 ppm [9] | mortality at 300 ppm ([4]; Thrips, 72 h) | mortality at 2500 ppm [5] | mortality at 300 ppm ([6]; 72 h) | mortality at 300 ppm [12]
